# Measurements as given in patent US5489598A, “Cytoprotection utilizing aryltriazol-3-thiones” (Warner-Lambert Company, priority 1994, dated 1996).
# Tests used:
# [1] = target: T1, Mac-1 (CD11b/CD18) (Homo sapiens, UniProt P05107+P11215); assay: Human Neutrophil Mac-1 Adhesion Assay (PMN KLH); assay type: cell-based; details: human neutrophils, FMLP-stimulated, KLH coated plates
# T1 construct: methodology to isolate neutrophils from ethylenediaminetetraacetic acid (EDTA)-treated venous blood obtained from healthy human volunteers; endogenous in cells; host or cells: neutrophils (PMN) freshly isolated from venous blood of healthy human volunteers
# Description: Protocol for Human Neutrophil Mac-1 Adhesion Assay
# We evaluated several 5-aryltriazol-3-thiones utilizing methodology similar to that of Ferrante and Thong as described in J. Immunol. […] Namely, we utilized Ferrante and Thong's methodology to isolate neutrophils from ethylenediaminetetraacetic acid (EDTA)-treated venous blood obtained from healthy human volunteers. Keyhole limpet hemocyanin (KLH) coated microtiter plates were prepared as follows:
# All pipetting was automated using the Cetus Pro/Pette (Perkin-Elmer; division of Applied Biosystems, Foster, Calif.). KLH, Megathura crenulata; Calbiochem-Novabiochem, La Jolla, Calif., was prepared at a concentration of 0.5 mg/mL in Dulbecco's PBS phosphate buffered saline (PBS) with CA++, pH 7.2 (DPBS).
# Microtiter plates are prewashed with 50% EtOH for 1 hour at 37° C., then drained and blotted to dryness. Then 0.3 mL KLH solution was pipetted into each well of the 96 well microtiter plate, covered and incubated overnight at 37° C. Plates are then inverted to drain, blotted to dryness, washed with 0.3 mL cold D-PBS, drained, blotted to dryness, then stored at 4° C. until use.
# Procedure for PMN KLH (Mac-1 Adhesion Assay)
# On the Pro/Pette system, a treatment plate was placed in plate position 1 (P-1), buffer Micro.trof was placed in plate position 2 (P-2), and a single row of tips in a spare magazine are placed in the tip position on the carriage. Two hundred ten μL aliquots D-PBS are pipetted into all wells (105 μL using Cetus File #18, Micro.trof 3, no mixes, tip row H, no tip change, run twice). Drug plate was placed in plate position 2 (P-2). Donor drug plates were prepared to contain buffer or drug in appropriate wells. Thirty μL drug or D-PBS buffer are pipetted into appropriate wells in the treatment plate in position 1 (P-1) (Cetus File #17, one mix before and after, changing tips) from donor plate. Thirty μL of neutrophils (PMNs) (30 μL of 10^7 cells/mL) were next pipetted from either a Micro.trof 1, position 2 (P-2), or a row of 0.5 mL capacity microcentrifuge tubes (Sarstedt RIA vials) to plate 1 using Cetus File #18, changing tips, one mix (50 μL) before and after. Cells and drug were then incubated for 10 minutes at 37° C. Agonist (e.g., FMLP) or D-PBS buffer (30 μL) were next pipetted to appropriate wells using Cetus File #18 (Micro.trof) or Cetus File #42 (for plate to plate), changing tips and one mix before and after. Cell/drug/agonist mixture was then incubated for 60 minutes at 37° C. After the incubation period, the treatment plate is gently inverted to drain, blotted lightly to dryness on a paper towel. The treatment plate is then washed with 300 μL D-PBS buffer using Cetus File #18, using pump at slow speed, again inverted to drain, and again blotted to dryness. Adherent cells are stained by the addition of 150 μL D-PBS buffer to all wells, using Cetus File #18, Micro.trof 3 no tip change. […] The treatment plate is then incubated overnight at 37° C.
# After overnight incubation, the treatment plate is gently inverted to drain, blotted to dryness on paper towel, then gently washed with 300 μL D-PBS buffer using Cetus File #18, using pump at slow sped. The treatment plate is then gently inverted to drain, and blotted to dryness. The washing of the treatment plate is repeated until all excess dye is removed.
# The treatment plate is then covered and incubated for 60 minutes at 37° C. After the incubation, 150 μL 50% EtOH is added to each well of the treatment plate using Cetus File #18, Micro.trof 3, mixing three times, changing tips. […]
# a. mean unstimulated cell control OD is determined and subtracted from all other values b. mean net stimulated, e.g., FMLP, control values are determined c. mean drug values are determined and percent drug inhibition vs. stimulus control are calculated as follows: [formula] d. IC50 determinations, plotting logdose vs. percent inhibition, are determined by linear regression analysis using the least squares method.
# [2] = system: gastric damage (acidified aspirin); assay: Cytoprotection study: gastric damage by oral acidified aspirin; assay type: in vivo, Sprague-Dawley rats; details: Rattus norvegicus; 1 mg/kg PO, 15 min before oral acidified aspirin 288 mg/kg; female rats
# Description: Protocol for Cytoprotection Studies
# For all studies, random-bred, barrier-raised, SPF, female Sprague-Dawley rats (Charles River Laboratories, Portage, Mich.) weighing 180-300 g were used. Animals were acclimated for at least 1 week prior to the studies and housed in wire bottom cages supplied with macrofiltered fresh tap water and Purina Rat Chow #5012 (Purina Mills Inc., Richmond, Ind.) ad libitum. The animal rooms were kept at 22° C.±1° C. and 50% humidity.
# All animals were food fasted for 24 hours and water deprived for 2 or more hours prior to treatment administration. For oral dosing, Aspirin (acetylsalicylic acid, Sigma, St. Louis, Mo.) was dissolved in an aqueous solution of 150 mM HCl (Takeucvhi K., Digestive Disease and Science, 35:178-185 (1990)). Misoprostol was used as a standard. The test compound was dissolved in double glass distilled water, normal saline USP (NS) or the misoprostol phosphate buffer vehicle. All oral doses of misoprostol and test compounds were administered in a volume of 1 mL/animal. All oral dosing was done by gavage using a 3 mL syringe attached to a […], 17 gauge gavage needle.
# The test compounds were administered in 1 mL 15 minutes prior to treatment with an oral dose of acidified aspirin (288 mg/kg in 150 mM HCl) given in 1 mL. Stomachs were removed to assess gastric damage 30 minutes after exposure to the damaging agent. The stomach was isolated through a midline incision in the abdomen followed by clamping of the esophagus and duodenum. Seven milliliters of 10% formalin (Fisher Scientific, Fair Lawn, N.J.) was injected into the stomach which was then excised and submerged in formalin for at least 10 minutes. The stomach was then opened along the greater curvature and pinned flat and submerged in formalin overnight. After the forestomach and exterior blood vessels were trimmed away, the tissues were clarified with glycerol (E. M. Science, Gibbstown, N.J.) and flattened between Plexiglass plates. Gastric damage was measured with a Cambridge Instruments LTD., (Cambridge, UK) Quantimet 970 Image Analysis System. Hemorrhagic damage appeared as darkened areas on a background of lighter undamaged tissue. This darker area was detected and surface area measured by the image analyzer. In addition, the complete stomachs were also completely submerged in 0.1N solution of iodine (J. T. Baker Chemical Co., Phillipsburg, N.J.), and the total stomach surface area was determined. The system was calibrated prior to each use with a standard sample. The percent damage and percent protection was computed by the following equation: [formula]
# T1 sequence (P05107 23-769, other chains not shown): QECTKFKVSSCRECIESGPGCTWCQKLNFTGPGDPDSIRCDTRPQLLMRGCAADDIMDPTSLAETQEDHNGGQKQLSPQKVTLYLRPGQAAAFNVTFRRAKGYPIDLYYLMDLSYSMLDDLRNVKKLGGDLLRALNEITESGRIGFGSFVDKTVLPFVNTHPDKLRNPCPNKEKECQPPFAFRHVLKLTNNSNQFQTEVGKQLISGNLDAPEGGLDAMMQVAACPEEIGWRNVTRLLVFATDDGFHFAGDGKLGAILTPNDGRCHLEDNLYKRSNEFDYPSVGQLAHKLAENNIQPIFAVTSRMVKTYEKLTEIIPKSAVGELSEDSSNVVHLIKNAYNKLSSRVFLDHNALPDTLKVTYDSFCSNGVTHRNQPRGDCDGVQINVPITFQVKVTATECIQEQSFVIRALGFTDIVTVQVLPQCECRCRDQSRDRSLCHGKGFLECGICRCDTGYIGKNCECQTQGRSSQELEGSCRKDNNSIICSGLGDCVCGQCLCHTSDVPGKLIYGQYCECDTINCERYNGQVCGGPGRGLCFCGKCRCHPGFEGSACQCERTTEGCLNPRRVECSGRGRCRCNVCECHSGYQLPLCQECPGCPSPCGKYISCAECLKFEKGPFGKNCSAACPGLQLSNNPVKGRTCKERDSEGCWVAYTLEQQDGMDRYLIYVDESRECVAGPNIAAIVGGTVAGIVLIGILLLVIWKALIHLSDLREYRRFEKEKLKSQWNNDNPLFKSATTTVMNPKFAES
smiles,measurement,setting,value
"CCn1c(-c2ccc(N)cc2)n[nH]c1=S [Example 2, 5-(4-aminophenyl)-4-ethyl-2,4-dihydro-[1,2,4]triazol-3-thione]",inhibition at 33 µM,[1],36.9%
"CCn1c(-c2ccc(O)cc2)n[nH]c1=S [Example 4, 5-(4-hydroxyphenyl)-4-ethyl-2,4-dihydro-[1,2,4]triazol-3-thione]",IC50,[1],7800 nM
"CCn1c(S)nnc1-c1ccccc1O [Example 5, 5-(2-hydroxyphenyl)-4-ethyl-2,4-dihydro-[1,2,4]triazol-3-thione]",IC50,[1],4300 nM
"CCn1c(-c2cc(Cl)ccc2N)n[nH]c1=S [Example 6, 5-(2-amino-5-chlorophenyl)-4-ethyl-2,4-dihydro-[1,2,4]triazol-3-thione]",IC50,[1],800 nM
same,inhibition in vivo at 1 mg/kg,[2],55.1%
"CCn1c(-c2cc(OC)c(OC)cc2N)n[nH]c1=S [Example 7, 5-(2-amino-4,5-dimethoxyphenyl)-4-ethyl-2,4-dihydro-[1,2,4]triazol-3-thione]",IC50,[1],7100 nM
"CCn1c(-c2ccc(OC)cc2)n[nH]c1=S [Example 11, 5-(4-methoxyphenyl)-4-ethyl-2,4-dihydro-[1,2,4]triazol-3-thione]",IC50,[1],1600 nM
same,inhibition in vivo at 1 mg/kg,[2],32.2%
"CCn1c(-c2ccc(Cl)cc2Cl)n[nH]c1=S [Example 12, 5-(2,4-chlorophenyl)-4-ethyl-2,4-dihydro-[1,2,4]triazol-3-thione]",IC50,[1],2100 nM
same,inhibition in vivo at 1 mg/kg,[2],59.4%
"CCn1c(-c2ccc(OC)c(OC)c2)n[nH]c1=S [Example 16, 5-(3,4-dimethoxyphenyl)-4-ethyl-2,4-dihydro-[1,2,4]triazol-3-thione]",IC50,[1],3100 nM
same,inhibition in vivo at 1 mg/kg,[2],62.2%
"Cc1ccccc1-c1n[nH]c(=S)n1-c1ccccc1 [Example 22, 5-(2-methylphenyl)-2,4-dihydro-4-phenyl-3H-[1,2,4]-triazol-3-thione]",IC50,[1],200 nM
"Sc1nnc(-c2ccccc2)n1-c1ccccc1 [Example 23, 2,4-dihydro-4,5-diphenyl-3H-[1,2,4]-triazol-3-thione]",IC50,[1],1100 nM
same,inhibition in vivo at 1 mg/kg,[2],21.4%
"COc1ccccc1-c1n[nH]c(=S)n1-c1ccccc1 [Example 24, 5-(2-methoxyphenyl)-2,4-dihydro-4-phenyl-3H-[1,2,4]-triazol-3-thione]",IC50,[1],2500 nM
"Sc1nnc(-c2ccccc2)n1Cc1ccccc1 [Example 25, 2,4-dihydro-5-phenyl-4-(phenylmethyl)-3H-[1,2,4]-triazol-3-thione]",IC50,[1],8100 nM
"COc1ccc(-c2n[nH]c(=S)n2-c2ccccc2)cc1OC [Example 26, 5-(3,4-dimethoxyphenyl)-2,4-dihydro-4-phenyl-3H-1,2,4-triazol-3-thione]",IC50,[1],800 nM
"Oc1ccc(-c2n[nH]c(=S)n2-c2ccccc2)cc1 [Example 27, 5-(4-hydroxyphenyl)-2,4-dihydro-4-phenyl-3H-[1,2,4]-triazol-3-thione]",inhibition at 33 µM,[1],6%
"COc1cccc(-c2n[nH]c(=S)n2-c2ccccc2)c1 [Example 28, 5-(3-methoxyphenyl)-2,4-dihydro-4-phenyl-3H-[1,2,4]-triazol-3-thione]",inhibition at 33 µM,[1],60%
"Oc1ccc(-c2n[nH]c(=S)n2Cc2ccccc2)cc1 [Example 29, 5-(4-hydroxyphenyl)-2,4-dihydro-4-phenylmethyl-3H-[1,2,4]-triazol-3-thione]",inhibition at 33 µM,[1],42%
"Nc1ccc(-c2n[nH]c(=S)n2-c2ccccc2)cc1 [Example 31, 5-(4-aminophenyl)-2,4-dihydro-4-phenyl-3H-[1,2,4]-triazol-3-thione]",inhibition at 33 µM,[1],15%
"COc1ccc(-c2n[nH]c(=S)n2C)cc1OC [Example 32, 5-(3,4-dimethoxyphenyl)-2,4-dihydro-4-methyl-3H-[1,2,4]-triazol-3-thione]",IC50,[1],1500 nM
same,inhibition in vivo at 1 mg/kg,[2],21.6%
"COc1ccc(-c2n[nH]c(=S)n2-c2ccccc2)cc1 [Example 33, 5-(4-methoxyphenyl)-2,4-dihydro-4-phenyl-3H-[1,2,4]-triazol-3-thione]",IC50,[1],4100 nM
"S=c1nc(-c2ccccc2)[nH][nH]1 [Example 34, 1,2-dihydro-5-phenyl-3H-[1,2,4]-triazol-3-thione]",inhibition at 33 µM,[1],58%
"Nc1ccccc1-c1n[nH]c(=S)n1-c1ccccc1 [Example 35, 5-(aminophenyl)-2,4-dihydro-4-phenyl-3H-[1,2,4]-triazol-3-thione]",inhibition at 33 µM,[1],24%
"CCn1c(-c2ccccc2N)n[nH]c1=S [Example 36, 5-(2-aminophenyl)-4-ethyl-2,4-dihydro-[1,2,4]triazol-3-thione]",IC50,[1],400 nM
same,inhibition in vivo at 1 mg/kg,[2],53.7%
"CNc1ccccc1-c1n[nH]c(=S)n1-c1ccccc1 [Example 37, 5-(2-methylaminophenyl)-4-phenyl-2,4-dihydro-[1,2,4]triazol-3-thione]",inhibition at 33 µM,[1],7%
"Cn1c(-c2ccccc2N)n[nH]c1=S [Example 38, 5-(2-Aminophenyl)-2,4-dihydro-4-methyl-4H-[1,2,4]triazol-3-thione]",inhibition at 33 µM,[1],-0.1%
same,inhibition in vivo at 1 mg/kg,[2],51.2%
"Nc1ccccc1-c1n[nH]c(=S)n1N [Example 39, 4-Amino-5-(2-aminophenyl)-2,4-dihydro-3H-[1,2,4]triazol-3-thione]",inhibition at 33 µM,[1],57%
